# Tests used:
# [1] = Thermal stress studies at 60° C. (XRD, HPLC); format: physicochemical; settings: for Day 1 % AUC / Day 7 % AUC / Initial % AUC: HPLC; for Initial % AUC: before thermal stress
# Protocol: Briefly, 20 mg of solid Form A, B, C, D, E, F, G, and I were weighed into 7 mL glass vials. The vials were covered with tissue and stored in ovens set to 60° C. and ambient pressure. Following 1 and 7 days incubation, solid was collected for XRD analysis.
# As shown in these figures, Forms B and C converted to Forms D and A, respectively, while the other forms remained unchanged.
# The starting materials, intermediates (1 day of thermal stress), and products (7 days of thermal stress) were analyzed by H PLC. Representative chromatograms from the Form D thermal stress analyses are shown in FIGS. 81-83 (starting material, 1 day, and 7 day samples, respectively).
# [2] = Differential scanning calorimetry (DSC): heat of fusion, thermal events; format: physicochemical; settings: for Heat of fusion / thermodynamic stability (from heat of fusion): DSC; for Heat of fusion: scaled-up polymorphs, measured during conversion from Form C; for thermodynamic stability (from heat of fusion): TABLE 10
# Protocol: Differential scanning calorimetry analyses were performed on each sample “as is.” Unless otherwise specified, samples were weighed in an aluminum pan, covered with a pierced lid, and then crimped and analyzed from 30-300° C. ramped at 10° C./min.
# The DSC data were used to determine the heat of fusion for Forms A, B, D, and F, based on their heats of fusion as measured during conversion from Form C.
# [3] = Thermal gravimetric analysis (TGA); format: physicochemical
# Protocol: Thermal gravimetric analyses were performed on each sample “as is.” Unless otherwise noted, samples were weighed in an alumina crucible and analyzed from 30-350° C. at 10° C./min.
# Form C weight loss at 39° C.-50° C. likely reflected methanol loss.
# [4] = Competitive slurry experiments (solvent-mediated polymorph transformation, XRD); format: physicochemical; settings: room temperature, 1 and 7 days
# Protocol: Polymorph stability and interconversions were analyzed with competitive slurry experiments. The competitive slurry (solvent-mediated transformation) experiments were performed on Forms A, B, D, E, F, G, and I generated through scaled-up crystallization (summarized in TABLE 11). […] The suspensions were aliquoted at one day and seven days and filtered to isolate the solids. Remaining solid was analyzed by XRD without drying.
# In FIG. 66, the second spectrum from the top corresponds to Form E. These XRD data confirmed that Patterns C, K, and D were afforded in these solvents.
# In order to further confirm the rank of stability order of the selected forms and extend the temperature range of stability relationship up to 70° C. covering potential API process conditions, binary form slurries were conducted with starting mixtures of (1) Forms A and D, and (2) Forms D and E. The resultant polymorphs were characterized with XRD after 1 and 7 days, the results of which analyses are shown in FIGURE S 67-68 and summarized in TABLE 13. Pattern D stood out from both binary mixture slurries of A & D and of D & E after seven-day stirring at the elevated temperature.
# Additional single form slurry experiments were conducted on Forms A, D, and E in either water or heptane at room temperature. […] In agreement with prior competitive slurry experiments, Form D was stable at room temperature in n-heptane. Pattern E was obtained from slurries starting with Forms A and E in n-heptane. As expected, Form C was formed from the Pattern E slurry in water.
# [5] = Crystallization of Formula (I) in single- and binary-solvent systems (resultant XRD pattern)
# Protocol: Formula (I) crystallization was first analyzed in single-solvent systems lacking antisolvent. […] Fast cooling was performed by placing the vials in a 4° C. refrigerator for 24 hours, while slow cooling was performed by decreasing the temperatures of the vials by 20° C./h with stirring. The resulting solids were isolated by centrifuge filtration through […] centrifuge filters. When solids were not produced, the solution was evaporated under nitrogen as an additional attempt to obtain solid. All obtained solids were analyzed by XRD to determine the solid pattern.
# Formula (I) recrystallization was then tested with binary-solvent systems containing water, n-heptane, or c-hexane as antisolvent. […] Anti solvents were added drop-wise at the same temperature until precipitate was observed or the vial volume was reached (˜7 mL). The vials were quickly cooled to 4° C. or slowly cooled by 20° C./hour as in the single-solvent recrystallizations. The resulting solids were isolated by centrifuge filtration. The samples without precipitation were evaporated to dryness under a gentle stream of nitrogen gas as an additional attempt to obtain solid. All obtained solids were analyzed by XRD to determine the solid form. […]
structure (smiles),measurement,setting,value
CC[C@H](C)C(=O)N1CCC(NC(=O)Nc2ccc(OC(F)(F)F)c(F)c2)CC1 [G],Day 7 XRD,"[1]; 60° C., ambient pressure",G/L
same,"DSC Thermal Events, Endo: melting of pattern G",[2],143 °C melting of pattern G
CC[C@H](C)C(=O)N1CCC(NC(=O)Nc2ccc(OC(F)(F)F)c(F)c2)CC1 [L],TGA: wt change,[3]; at range 107° C.-[…] C.,0.4% wt change at
same,TGA: wt change,[3]; at range […] C.-135° C.,0.3% wt change at
same,"DSC Thermal Events, Endo: melting of pattern D",[2],141 °C melting of pattern D
same,"DSC Thermal Events, Endo: melting of pattern F",[2],148 °C melting of pattern F
same,"DSC Thermal Events, Exo: crystallization of pattern D",[2],138 °C crystallization of pattern D
same,"DSC Thermal Events, Exo: crystallization of pattern F",[2],143 °C crystallization of patter F
CC[C@H](C)C(=O)N1CCC(NC(=O)Nc2ccc(OC(F)(F)F)c(F)c2)CC1 [K],TGA: wt change,[3]; at range 120° C.-[…] C.,5.0% wt change at
same,"DSC Thermal Events, Endo: dehydration of bound water/desolvation of pattern K",[2],127 °C dehydration of bound water/
same,"DSC Thermal Events, Endo: melting of pattern D",[2],142 °C melting of pattern D
same,"DSC Thermal Events, Endo: melting of pattern F",[2],148 °C melting of pattern F
same,"DSC Thermal Events, Exo: crystallization of pattern D",[2],130 °C crystallization of pattern D
CC[C@H](C)C(=O)N1CCC(NC(=O)Nc2ccc(OC(F)(F)F)c(F)c2)CC1 [I],"DSC Thermal Events, Endo: melting of pattern I",[2],144 °C melting of pattern I
"CC[C@H](C)C(=O)N1CCC(NC(=O)Nc2ccc(OC(F)(F)F)c(F)c2)CC1 [Form F, (S)-1-(3-fluoro-4-(trifluoromethoxy)phenyl)-3-(1-(2-methylbutanoyl)piperidin-4-yl)urea]",Day 1 % AUC,[1]; 60° C.,100%
same,Day 7 % AUC,[1]; 60° C.,100%
same,Initial % AUC,[1],100%
same,"DSC Thermal Events, Endo: melting of pattern F",[2],150 °C melting of pattern F
same,Heat of fusion,[2]; listed as F,57.06
CC[C@H](C)C(=O)N1CCC(NC(=O)Nc2ccc(OC(F)(F)F)c(F)c2)CC1 [E],TGA: wt change,[3]; at range 116° C.-119° C.,4.7% wt change at
same,"DSC Thermal Events, Endo: dehydration of bound water of pattern E",[2],121 °C dehydration of bound water of
same,"DSC Thermal Events, Endo: melting of pattern D",[2],142 °C melting of pattern D
same,"DSC Thermal Events, Endo: melting of pattern F",[2],148 °C melting of pattern F
same,"DSC Thermal Events, Exo: crystallization of pattern D",[2],126 °C crystallization of pattern D
same,"DSC Thermal Events, Exo: crystallization of pattern F",[2],144 °C crystallization of pattern F
CC[C@H](C)C(=O)N1CCC(NC(=O)Nc2ccc(OC(F)(F)F)c(F)c2)CC1 [J],TGA: wt change,[3]; at range 75° C.-82° C.,3.7% wt change at
same,TGA: wt change,[3]; at range 116° C.-[…] C.,4.6% wt change at
same,"DSC Thermal Events, Endo: dehydration of bound water/desolvation of pattern J or another unknown pattern",[2],129 °C dehydration of bound
same,"DSC Thermal Events, Endo: melting of pattern B",[2],146 °C melting of pattern B
same,"DSC Thermal Events, Endo: melting of pattern F",[2],149 °C melting of pattern F
same,"DSC Thermal Events, Endo: melting of unknown pattern",[2],140 °C melting of unknown
same,"DSC Thermal Events, Exo: crystallization of unknown pattern",[2],103 °C crystallization of unknown
same,"DSC Thermal Events, Endo: dehydration of bound water/desolvation of pattern J",[2]; major peak with a shoulder,91 °C dehydration of bound
"CC[C@H](C)C(=O)N1CCC(NC(=O)Nc2ccc(OC(F)(F)F)c(F)c2)CC1 [Form A, (S)-1-(3-fluoro-4-(trifluoromethoxy)phenyl)-3-(1-(2-methylbutanoyl)piperidin-4-yl)urea]",single form slurry in n-heptane: resultant polymorph,[4],Pattern E
same,Day 1 % AUC,[1]; 60° C.,100%
same,Day 7 % AUC,[1]; 60° C.,100%
same,Initial % AUC,[1],100%
same,TGA: wt change,[3]; below 150° C.,No wt change below
same,"DSC Thermal Events, Endo: melting of pattern A",[2],113 °C melting of pattern A
same,"DSC Thermal Events, Endo: melting of pattern D",[2],141 °C melting of pattern D (shoulder)
same,"DSC Thermal Events, Endo: melting of pattern F",[2],148 °C meting of patter F
same,"DSC Thermal Events, Exo: crystallization of pattern D",[2],127 °C crystallization of pattern D
same,"DSC Thermal Events, Exo: crystallization of pattern F",[2],117 °C crystallization of pattern
same,thermodynamic stability (from heat of fusion),[2],thermodynamically stable
same,Heat of fusion,[2],29.73
"CC[C@H](C)C(=O)N1CCC(NC(=O)Nc2ccc(OC(F)(F)F)c(F)c2)CC1 [Form B, (S)-1-(3-fluoro-4-(trifluoromethoxy)phenyl)-3-(1-(2-methylbutanoyl)piperidin-4-yl)urea]",conversion to Form D,"[1]; 60° C., following one day of incubation",100%
same,TGA: wt change,[3]; below 150° C.,No wt change below
same,"DSC Thermal Events, Endo: melting of pattern B",[2],146 °C melting of pattern B
same,"DSC Thermal Events, Endo: melting of pattern D",[2],141 °C melting of pattern D
same,thermodynamic stability (from heat of fusion),[2],thermodynamically stable
same,Heat of fusion,[2]; listed as B,53.14
CC[C@H](C)C(=O)N1CCC(NC(=O)Nc2ccc(OC(F)(F)F)c(F)c2)CC1 [Formula (I) Form C],Formula (I) Product Form,"[5]; Acetone (0.1)/n-Heptane (0.4), 50° C., Slow, ppt/evaporate",B + E
same,Formula (I) Product Form,"[5]; DMSO (0.1)/Water (0.05), 70° C., Slow, ppt/filtered",D + F
same,Formula (I) Product Form,"[5]; EtOH (0.1)/c-Hexane (6), 70° C., Slow, clear/",F + H
same,Formula (I) Product Form,"[5]; IPA (0.1)/c-Hexane (2), 70° C., Fast, ppt/filtered",H + F
same,Formula (I) Product Form,"[5]; NMP (0.1)/c-Hexane (6), 70° C., Slow, clear/evaporate",D + F
CC[C@H](C)C(=O)N1CCC(NC(=O)Nc2ccc(OC(F)(F)F)c(F)c2)CC1 [C],TGA: wt change,[3]; at range 39° C.-50° C.,1.4% wt change at
same,"DSC Thermal Events, Endo: dehydration of bound water of pattern C",[2],73° C.: dehydration of bound water of
same,"DSC Thermal Events, Endo: melting of pattern A",[2],109 °C melting of pattern A
same,"DSC Thermal Events, Endo: melting of pattern F",[2],147 °C melting of pattern F
same,"DSC Thermal Events, Exo: crystallization of pattern F",[2],114 °C crystallization of pattern F
CC[C@H](C)C(=O)N1CCC(NC(=O)Nc2ccc(OC(F)(F)F)c(F)c2)CC1 [H],TGA: wt change,[3]; at 83° C.,No detectable wt
same,TGA: wt change,[3]; at range […] C.-126° C.,7.2% wt change at
same,"DSC Thermal Events, Endo: dehydration of bound water of pattern C",[2],83° C.: dehydration of bound water of
same,"DSC Thermal Events, Endo: desolvation of pattern H",[2],129 °C desolvation of pattern H
same,"DSC Thermal Events, Endo: melting of pattern A",[2],140 °C melting of pattern A
same,"DSC Thermal Events, Endo: melting of pattern F",[2],148 °C melting of pattern F
same,"DSC Thermal Events, Exo: crystallization of pattern D",[2],133 °C crystallization of pattern D
same,"DSC Thermal Events, Exo: crystallization of pattern F",[2],142 °C crystallization of patter F
CC[C@H](C)C(=O)N1CCC(NC(=O)Nc2ccc(OC(F)(F)F)c(F)c2)CC1 [Lot 3],Endotherm (likely dehydration of bound water),[2]; DSC thermogram of lot,84 °C
same,Endotherm (melting of Form A),[2]; DSC thermogram of lot,"111 °C (melting of Form A),"
same,Exotherm (crystallization of Form B),[2]; DSC thermogram of lot,117 °C (crystallization of
"CC[C@H](C)C(=O)N1CCC(NC(=O)Nc2ccc(OC(F)(F)F)c(F)c2)CC1 [Form E, (S)-1-(3-fluoro-4-(trifluoromethoxy)phenyl)-3-(1-(2-methylbutanoyl)piperidin-4-yl)urea]",single form slurry in n-heptane: resultant polymorph,[4],Pattern E
same,single form slurry in water: resultant polymorph,[4]; water,Form C
